Assay results published in patent US7507776B2, “Outdoor weatherable photopolymerizable coatings” (3M Innovative Properties Company, priority 2003, dated 2009).

Test: 48 hr solubility of benzotriazole UV absorbers in solubilizing monomers
Conditions: not given
Procedure: The solubility of the benzotriazole 2-(2-hydroxy-3-alpha-cumyl-5-t-octylphenyl)-5-trifluoromethylbenzotriazole (CGL-139, experimentally available from Ciba Specialty Chemicals) in various solubilizing monomers was determined. Mixtures were made up using 5% increments of the benzotriazole. The benzotriazole and solubilizing monomer to be tested were mixed with gentle heating to 70° C. in a water bath until dissolved, then allowed to stand for 48 hours at room temperature. After 48 hours, each mixture was inspected for benzotriazole precipitation. Solubility was determined to within 5% by recording the highest concentration tested for which there was no precipitation and the lowest concentration for which precipitation occurred. […] Where reported in the literature, the Tg of a polymer made entirely of the tested solubilizing monomer is also given.
Using the method of Example 1, the solubility of a variety of benzotriazoles in isobornyl acrylate was determined. The formula for each of the tested benzotriazoles is set out above. These benzotriazoles can also be represented using the general structure 2-(2-hydroxy-3-R2-5-R3-phenyl)-5-R1-benzotriazole. For CGL-139, R1=trifluoromethyl, R2=alpha-cumyl, and R3=t-octyl. For TINUVIN 928, R1=H, R2=alpha-cumyl, and R3=t-octyl. For Tinuvin 328, R1=H, R2=t-amyl, and R3=t-amyl. For TINUVIN 327, R1=chloro, R2=t-butyl, and R3=t-butyl. For TINUVIN 326, R1=chloro, R2=t-butyl, and R3=methyl. For both TINUVIN 234 and TINUVIN 900, R1=H, R2=alpha-cumyl, and R3=alpha-cumyl.

SMILES	Benzotriazole 48 hr Solubility, wt. %
CC(C)(C)CC(C)(C)c1cc(-n2nc3ccc(C(F)(F)F)cc3n2)c(O)c(C(C)(C)c2ccccc2)c1 [CGL-139, 2-(2-hydroxy-3-alpha-cumyl-5-t-octylphenyl)-5-trifluoromethylbenzotriazole]	25-30% wt. %
Cc1cc(-n2nc3ccc(Cl)cc3n2)c(O)c(C(C)(C)C)c1 [TINUVIN 326, 5-chloro-2-(2-hydroxy-3-tert-butyl-5-methylphenyl)-2H-benzotriazole]	5-10% wt. %
CC(C)(C)CC(C)(C)c1cc(-n2nc3ccccc3n2)c(O)c(C(C)(C)c2ccccc2)c1 [TINUVIN 928, 2-(2-hydroxy-3-alpha-cumyl-5-tert-octylphenyl)-2H-benzotriazole]	30-35% wt. %

Same assay, conditions: in isobornyl acrylate; method of Example 1, 48 hours at room temperature

SMILES	Benzotriazole 48 hr Solubility, wt. %
CC(C)(C)c1cc(-n2nc3ccc(Cl)cc3n2)c(O)c(C(C)(C)C)c1 [TINUVIN 327, 5-chloro-2-(2-hydroxy-3,5-di-tert-butylphenyl)-2H-benzotriazole]	5-10% wt. %
CCC(C)(C)c1cc(-n2nc3ccccc3n2)c(O)c(C(C)(C)CC)c1 [TINUVIN 328, 2-(2-hydroxy-3,5-di-tert-amylphenyl)-2H-benzotriazole]	20-25% wt. %
CC(C)(c1ccccc1)c1cc(-n2nc3ccccc3n2)c(O)c(C(C)(C)c2ccccc2)c1 [TINUVIN 900, 2-(2-hydroxy-3,5-di-alpha-cumylphenyl)-2H-benzotriazole]	0-5% wt. %
